In ChEMBL document CHEMBL1201862, “PubChem BioAssay data set” (2004):
Activity calls are given as the source filed them.

Assays:
Cytochrome P450 2C19 = Cytochrome P450 2C19 (Homo sapiens, UniProt P33261); assay: Cytochrome panel assay with activity outcomes. Panel member name: p450-cyp2c19 Compounds with AC50 equal or less than 10 uM are considered active; format: functional
[1] = molecular target: T1, Heat shock factor protein 1 (Mus musculus, UniProt P38532); assay: inhibition of MG132-induced HSE-luciferase signal, confirmation, cell-based, NIH3T3, luminescence, dose retest (AID 2382); format: functional;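 further: NIH3T3 fibroblasts with HSF1-driven luciferase reporter stressed by proteasome inhibitor MG132; luminescence from HSF1-driven luciferase expression after 8 hours of MG132 stress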
T1 sequence (P38532 whole entry): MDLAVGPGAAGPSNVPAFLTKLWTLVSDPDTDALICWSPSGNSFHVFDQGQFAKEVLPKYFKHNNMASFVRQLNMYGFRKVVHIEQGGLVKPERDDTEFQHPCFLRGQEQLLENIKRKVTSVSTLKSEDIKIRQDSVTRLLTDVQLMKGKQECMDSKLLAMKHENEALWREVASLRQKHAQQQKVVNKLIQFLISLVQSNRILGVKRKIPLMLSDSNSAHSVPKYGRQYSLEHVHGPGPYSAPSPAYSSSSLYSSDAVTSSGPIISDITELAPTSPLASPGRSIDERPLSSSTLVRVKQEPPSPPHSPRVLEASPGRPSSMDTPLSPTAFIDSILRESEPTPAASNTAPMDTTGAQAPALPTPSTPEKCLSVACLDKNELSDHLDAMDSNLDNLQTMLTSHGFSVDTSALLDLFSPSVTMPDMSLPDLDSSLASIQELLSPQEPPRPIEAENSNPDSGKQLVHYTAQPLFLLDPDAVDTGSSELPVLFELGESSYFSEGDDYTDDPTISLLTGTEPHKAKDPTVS

Cytochrome P450 3A4 = Cytochrome P450 3A4 (Homo sapiens, UniProt P08684);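 further: CYP3A4 tested as one member of a cytochrome P450 panel screen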
[2] = cytotoxicity toward NIH3T3 fibroblasts, dose response, counter-screen, cell-based, ATP luminescence, mouse fibroblasts (AID 2010); format: functional;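 further: cells exposed to compound for about 90 hours before reading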
[3] = inhibitors of intracellular T. cruzi replication, confirmation, NIH3T3 host cells, beta-gal luminescence (AID 2044); format: functional, cell-based;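 further: intracellular parasites grown in NIH/3T3 mouse fibroblasts as host cells; luminescent beta-galactosidase reporter signal from transgenic T. cruzi replicating inside host cells; inhibitors lower the luminescence signal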
Cytochrome P450 2D6 = Cytochrome P450 2D6 (Homo sapiens, UniProt P10635);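 further: CYP2D6 member of a cytochrome P450 panel assay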
[4] = tested on: Streptococcus sp. 'group A'; assay: growth inhibition of control SK(-) GAS strain, dose response, counter-screen for streptokinase expression inhibitor project, luminescence, kanamycin, BacTiterGlo, confirmation (AID 1900); format: functional, organism-based
Streptococcus = assay: Group A Streptococcus viability loss, dose response, counter-screen for streptokinase expression inhibitor project, luminescence, BacTiterGlo (AID 1915); format: functional, organism-based;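 further: potency for reduction of bacterial viability or growth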

Sequence of Cytochrome P450 2C19 (P33261 whole entry): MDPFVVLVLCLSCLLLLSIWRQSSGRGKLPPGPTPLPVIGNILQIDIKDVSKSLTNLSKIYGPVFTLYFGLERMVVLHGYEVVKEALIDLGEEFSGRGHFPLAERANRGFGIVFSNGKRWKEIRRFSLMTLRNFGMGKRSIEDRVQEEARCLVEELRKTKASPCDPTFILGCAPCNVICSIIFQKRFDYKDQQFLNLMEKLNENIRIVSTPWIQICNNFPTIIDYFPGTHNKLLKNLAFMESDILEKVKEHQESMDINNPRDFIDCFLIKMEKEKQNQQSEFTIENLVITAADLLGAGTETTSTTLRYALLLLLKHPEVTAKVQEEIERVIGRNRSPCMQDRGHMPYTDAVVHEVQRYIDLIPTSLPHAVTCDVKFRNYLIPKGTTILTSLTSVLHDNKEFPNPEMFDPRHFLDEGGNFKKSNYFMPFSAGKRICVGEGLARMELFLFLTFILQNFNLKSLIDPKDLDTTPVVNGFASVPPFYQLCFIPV
Sequence of Cytochrome P450 2D6 (P10635 whole entry): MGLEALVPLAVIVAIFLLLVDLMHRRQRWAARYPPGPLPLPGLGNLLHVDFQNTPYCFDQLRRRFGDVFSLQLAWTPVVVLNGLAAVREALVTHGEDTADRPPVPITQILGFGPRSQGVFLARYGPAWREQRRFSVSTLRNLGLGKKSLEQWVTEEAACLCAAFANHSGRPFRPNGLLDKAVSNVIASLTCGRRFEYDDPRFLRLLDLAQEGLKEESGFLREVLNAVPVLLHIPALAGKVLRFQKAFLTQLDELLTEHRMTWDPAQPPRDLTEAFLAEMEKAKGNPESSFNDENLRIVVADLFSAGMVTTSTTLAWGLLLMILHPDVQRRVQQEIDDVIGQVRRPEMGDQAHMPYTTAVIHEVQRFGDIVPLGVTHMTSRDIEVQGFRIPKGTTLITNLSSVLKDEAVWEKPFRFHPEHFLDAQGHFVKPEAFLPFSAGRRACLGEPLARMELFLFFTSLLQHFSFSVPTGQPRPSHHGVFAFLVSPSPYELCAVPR
Sequence of Cytochrome P450 3A4 (P08684 whole entry): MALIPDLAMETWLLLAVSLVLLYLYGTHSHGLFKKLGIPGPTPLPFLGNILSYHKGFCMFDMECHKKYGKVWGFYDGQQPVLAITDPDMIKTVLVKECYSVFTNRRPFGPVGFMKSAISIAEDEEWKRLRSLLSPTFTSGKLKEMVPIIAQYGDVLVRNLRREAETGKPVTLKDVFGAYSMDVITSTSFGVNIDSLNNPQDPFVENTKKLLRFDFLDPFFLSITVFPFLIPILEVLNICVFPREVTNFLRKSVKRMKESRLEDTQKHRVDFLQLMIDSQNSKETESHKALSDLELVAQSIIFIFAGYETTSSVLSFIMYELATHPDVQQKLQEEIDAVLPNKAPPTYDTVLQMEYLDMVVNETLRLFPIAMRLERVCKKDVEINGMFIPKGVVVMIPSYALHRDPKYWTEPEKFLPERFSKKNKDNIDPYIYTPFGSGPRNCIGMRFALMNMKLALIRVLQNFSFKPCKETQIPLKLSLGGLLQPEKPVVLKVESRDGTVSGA

N[C@H](CCCC(=O)O)C(=O)O
AC50 (Cytochrome P450 2C19): inconclusive

O=C(O)C1C2C=CC(O2)C1C(=O)Nc1ccc2c(c1)OCCO2 (configuration not stated)
EC50 [1]: 25.9 µM (active)

O=C1CCC[C@@H](C(C(=O)OCc2ccccc2)C(=O)OCc2ccccc2)C1
AC50 (Cytochrome P450 2C19; read-out: AC50): 3.98 µM (inconclusive) | AC50 (Cytochrome P450 3A4): 3.98 µM (inconclusive)

COc1cc(NC(=O)c2cc(-c3ccc4c(c3)OCO4)on2)cc(OC)c1OC
EC50 [2]: > 30 µM (not active) | EC50 [3]: 0.115 µM (active)

Cn1c(=O)c2nc(CCS)[nH]c2n(C)c1=O
AC50 (Cytochrome P450 3A4): 10 µM (inconclusive)

Cc1ccc(OCC(=O)Nc2cnc(O)nc2O)cc1C
EC50 [1]: > 195 µM (not active)

CC(C)Cn1c(N)c(C(=O)CSc2nc3ccccc3c(=O)n2CCCN2CCOCC2)c(=O)n(C)c1=O
EC50 [2]: > 60 µM (not active) | EC50 [3]: 1.5 µM (active)

C=CC[C@@H]1C=C[C@H](O/N=C(\C)CCN2CCc3nc(CC)c(CC)cc3C2)[C@H](CO)O1
AC50 (Cytochrome P450 2D6): 3.98 µM (inconclusive)

CCOc1ccc(C(=O)COC(=O)Cc2nnc(O)c3ccccc23)cc1
EC50 [1]: > 195 µM (not active)

OC(COc1ccc(F)cc1Cl)CN1CCC(Cc2ccccc2)CC1 (configuration not stated)
EC50 [2]: > 30 µM (not active) | EC50 [3]: 4.04 µM (active)

CN1CCN(c2nc(Nc3cccc(C(F)(F)F)c3)nc(N3CCOCC3)n2)CC1
EC50 [2]: 10.3 µM (active) | EC50 [3]: 1.78 µM (active)

O=C(O)CN1CCN(Cc2ccc(F)cc2Cl)C1=O
AC50 (Cytochrome P450 2D6): 20 µM (inconclusive)

Cc1ccc(-n2c(=O)cc(N3CCN(Cc4ccccc4)CC3)[nH]c2=O)cc1
EC50 [1]: > 195 µM (not active)

CC(C)CCNC(=O)c1ccc2c(SCC(=O)O)c3c(nc2c1)CCC3
EC50 [1]: > 195 µM (not active)

Cc1nn(-c2ccc([N+](=O)[O-])cc2)c2c1C(c1ccc(OC(F)F)cc1)N1C(=N2)C(=O)Nc2ccccc21 (configuration not stated)
EC50 [2]: > 60 µM (not active) | EC50 [3]: 1.31 µM (active)

COC(=O)CSc1ccc2nnc(-c3ccc(F)cc3)n2n1
AC50 (Cytochrome P450 2C19; read-out: AC50): 28.2 µM (inconclusive)

CCNc1ncc2nc(-c3cccs3)c(=O)n(CCc3ccccc3)c2n1
AC50 (Cytochrome P450 3A4): 15.8 µM (inconclusive) | AC50 (Cytochrome P450 2D6): 20 µM (inconclusive)

CCCn1c(-c2cccs2)nc2nc3ccccc3nc21
AC50 (Cytochrome P450 2D6): 28.2 µM (inconclusive)

CCOC(=O)c1cc2c(C(F)(F)F)cc(-c3ccccc3)nc2o1
AC50 (Cytochrome P450 2C19; read-out: AC50): 25.1 µM (inconclusive)

Cc1nc2cnc(Nc3ccccc3)nc2n(C[C@H]2CCCO2)c1=O
AC50 (Cytochrome P450 3A4): 15.8 µM (inconclusive)

Clc1ccc(CNCCCSc2ncccn2)cc1Cl
EC50 [2]: > 60 µM (not active) | EC50 [3]: 1.19 µM (active)

Nc1cc(N)nc(SCC(=O)c2ccccc2)n1
AC50 (Cytochrome P450 2C19; read-out: AC50): 7.08 µM (inconclusive) | AC50 (Cytochrome P450 3A4): 35.5 µM (inconclusive)

Cc1cc(Nc2ccc3c(c2)OCCO3)c2cc(Cl)ccc2n1
EC50 [1]: 17.2 µM (active)

CC1(C)OC(=O)N(Cc2ccco2)C1(C)O (configuration not stated)
AC50 (Cytochrome P450 2C19; read-out: AC50): 14.1 µM (inconclusive)

CCN(CC)S(=O)(=O)c1ccc(C(=O)Nc2ncn(Cc3ccccc3)n2)cc1
AC50 (Cytochrome P450 2C19; read-out: AC50): 25.1 µM (inconclusive)

Cc1c(C2=CCN(S(=O)(=O)c3ccc(Br)cc3)CC2)c2ccccc2n1C
EC50 [1]: > 195 µM (not active)

Cc1noc(C)c1-c1nccc(NCCN2CCOCC2)n1
AC50 (Cytochrome P450 3A4): 20 µM (inconclusive) | AC50 (Cytochrome P450 2D6): 20 µM (inconclusive)

Cc1ccc(S(=O)(=O)NCCSc2nnnn2C)cc1
AC50 (Cytochrome P450 3A4): 14.1 µM (inconclusive)

Cc1nc(C)c(-c2nnc(-c3cccc(S(=O)(=O)N(C)C)c3)o2)cc1C(=O)NN
EC50 [1]: > 195 µM (not active)

CCOC(=O)c1nc(Nc2cc(C)cc(C)c2)c2ccccc2n1
EC50 [2]: > 30 µM (not active) | EC50 [3]: 2.85 µM (active)

O=C(NCCc1csc(-c2ccccc2)n1)c1ccccc1F
EC50 [2]: > 60 µM (not active) | EC50 [3]: 0.531 µM (active)

NS(=O)(=O)c1ccc(Nc2nc(-c3cccc([N+](=O)[O-])c3)cs2)cc1
EC50 [2]: > 60 µM (not active) | EC50 [3]: 4.08 µM (active)

CC12CCC3C(CC=C4CC5(CCC43C)OCCO5)C1CCC2=O (configuration not stated)
EC50 [1]: > 195 µM (not active)

COCCn1c(=O)c(-c2cccs2)nc2cnc(OCc3ccccc3)nc21
AC50 (Cytochrome P450 3A4): 3.16 µM (inconclusive)

COc1ccccc1-c1cncnc1N(C)Cc1ccco1
AC50 (Cytochrome P450 2D6): 25.1 µM (inconclusive)

C/C=C(\C)CN1CCC(n2nccc2NC(=O)c2ccc(OC)cc2)CC1
EC50 [2]: > 60 µM (not active) | EC50 [3]: 0.703 µM (active)

COc1ccccc1CN1CCCC(CN(CCN(C)C)C(=O)C2CCCC2)C1 (configuration not stated)
EC50 [1]: > 195 µM (not active)

O=S(=O)(Nc1cccc(Oc2cnccn2)c1)c1ccc(F)cc1
EC50 [1]: > 195 µM (not active)

COc1cccc(-c2cc(NCc3cnc(C)cn3)ncn2)c1
AC50 (Cytochrome P450 2C19; read-out: AC50): 0.398 µM (inconclusive)

Cc1ccc([C@@]2(C)CC/C(=N/N=C3\CC[C@](C)(c4ccc(C)c(C)c4)c4cc(C)c(C)cc43)c3cc(C)c(C)cc32)cc1C
AC50 (Cytochrome P450 2C19): inconclusive

CN1CCN(c2ncnc3ccc(-c4ccc(C(=O)N(C)C)cc4)cc23)CC1
AC50 (Cytochrome P450 3A4): 25.1 µM (inconclusive)

CCOCCn1c(SCC(=O)OCc2ccccc2)nc2c1c(=O)[nH]c(=O)n2C
EC50 [1]: > 195 µM (not active)

CC(C)(C)C1CCC2(CC1)CCN(CCCN1CCOCC1)CC2
AC50 (Cytochrome P450 2D6): 3.98 µM (inconclusive)

Cc1ccc(-n2c(C)cc(/C=C(\C#N)C(=O)NCC3CCCO3)c2C)cc1 (configuration not stated)
AC50 (Cytochrome P450 3A4): 31.6 µM (inconclusive) | AC50 (Cytochrome P450 2D6): 14.1 µM (inconclusive)

O=C(NCc1ccccc1)c1onc(CSc2ccccc2)c1C(=O)NCC1CC1
EC50 [2]: > 60 µM (not active) | EC50 [3]: 4.28 µM (active)

CCOc1cccc(CN2CCCC(CCC(=O)NCc3ccccc3F)C2)c1O (configuration not stated)
EC50 [2]: > 60 µM (not active) | EC50 [3]: 0.222 µM (active)

CCOc1ccc(CN(C)CC(=O)Nc2cc(OC)c([N+](=O)[O-])cc2C)cc1
EC50 [2]: > 30 µM (not active) | EC50 [3]: 0.404 µM (active)

O=C(CN1CCN(Cc2ccccc2)CC1)c1ccc(Br)cc1
AC50 (Cytochrome P450 2C19; read-out: AC50): 14.1 µM (inconclusive) | AC50 (Cytochrome P450 3A4): 14.1 µM (inconclusive)

Cc1cc(/C=C2\SC(=O)NC2=O)c(C)n1-c1ccc(N2CCOCC2)cc1
EC50 [4]: 1.32 µM (active) | EC50 (Streptococcus): 4.72 µM (active)

NS(=O)(=O)c1ccc(/N=N\c2cc3ccccc3c(C(=O)O)c2O)cc1
AC50 (Cytochrome P450 3A4): 3.16 µM (inconclusive)

COC(=O)N1CCC2(CCN(Cc3ccc(C#N)cc3)CC2)CC1
AC50 (Cytochrome P450 2C19; read-out: AC50): 0.1 µM (inconclusive)

CC(NC(=O)CN1C(=O)NC(Cc2ccccc2)(Cc2ccccc2)C1=O)C12CC3CC(CC(C3)C1)C2 (configuration not stated)
EC50 [2]: > 30 µM (not active) | EC50 [3]: 2.81 µM (active)

O=C(NCCN1CCN(C(=O)c2cc3ccccc3oc2=O)CC1)c1cc2ccccc2oc1=O
AC50 (Cytochrome P450 2C19; read-out: AC50): 3.98 µM (inconclusive) | AC50 (Cytochrome P450 3A4): 14.1 µM (inconclusive)

Brc1ccccc1OCCCCCN1CCCC1
EC50 [2]: > 30 µM (not active) | EC50 [3]: 2.22 µM (active)

Cc1c(C=O)c2ccccn2c1C(=O)c1ccncc1
AC50 (Cytochrome P450 3A4): 10 µM (inconclusive) | AC50 (Cytochrome P450 2D6): 25.1 µM (inconclusive)

CCOC(=O)N1CCN(CC(O)COC2CC(C)CC(C)(C)C2)CC1 (configuration not stated)
EC50 [1]: > 195 µM (not active)

COc1ccc(COC(=O)N/N=C2/C[C@@H](O)[C@@H](O)[C@@H]3[C@@H]4C(=O)N(c5cccc(Oc6ccccc6)c5)C(=O)[C@H]4CC[C@@H]23)cc1
AC50 (Cytochrome P450 2D6): 3.16 µM (inconclusive)

Cc1nnc(Sc2cc(C(=O)NCCCN(C)Cc3ccccc3)c3ccccc3n2)s1
EC50 [2]: > 60 µM (not active) | EC50 [3]: 0.521 µM (active)

O=C(c1ccc(CN2CCc3ccccc3C2)cc1)N1CCc2ccccc2C1
AC50 (Cytochrome P450 3A4): 3.98 µM (inconclusive)

CN(C)c1ccc(-c2noc(C3CCN(C(=O)Nc4ccc(Cl)cc4)CC3)n2)cc1
EC50 [1]: > 195 µM (not active)

CCCCN1C(=O)NC(=O)/C(=C(/CC)NCc2ccc(F)cc2)C1=O
AC50 (Cytochrome P450 3A4): 28.2 µM (inconclusive)

c1cncc(-c2nc(N3CCNCC3)c3ccccc3n2)c1
AC50 (Cytochrome P450 3A4): 31.6 µM (inconclusive)

COc1ncc2ncc(=O)n(Cc3cccs3)c2n1
AC50 (Cytochrome P450 3A4): 1.26 µM (inconclusive)

CN(C)CCCN(C(=O)c1ccc(S(=O)(=O)N2CCc3ccccc32)cc1)c1nc2c(Cl)cccc2s1
EC50 [2]: 20.2 µM (active) | EC50 [3]: 0.206 µM (active)

O=C(c1ccccc1)N1CCN(CC2CC=CCC2)CC1 (configuration not stated)
EC50 [1]: > 195 µM (not active)

CC(=O)NC1(C(F)(F)F)C(=O)N(Cc2ccccc2)C2=C1C(=O)CC(C)(C)C2 (configuration not stated)
AC50 (Cytochrome P450 2C19; read-out: AC50): 15.8 µM (inconclusive) | AC50 (Cytochrome P450 3A4): 14.1 µM (inconclusive)

CC(O)(CS(=O)(=O)c1cccc(C(F)(F)F)c1)C(=O)Nc1ccc(C(F)(F)F)cc1 (configuration not stated)
AC50 (Cytochrome P450 2D6): 0.0224 µM (inconclusive)

COc1cc(N)c(Cl)cc1C(=O)N[C@@H]1CN2CCC1CC2
AC50 (Cytochrome P450 2D6): 39.8 µM (inconclusive)

N#Cc1cccc(-c2cncnc2NCc2ccccc2)c1
AC50 (Cytochrome P450 2D6): 20 µM (inconclusive)

CC(C)N(CCC(=O)c1ccc2ccccc2c1)Cc1ccccc1
AC50 (Cytochrome P450 3A4): 39.8 µM (inconclusive)
